Test: Diffusion of a fluorescent probe in swollen gelatin gel by FRAP
Format: physicochemical
Description: To assess the stability of DTPA[Gd(III)] in the gelatin coating, the diffusion of a fluorescence probe in gelatin was studied by the technique of fluorescence recovery after photobleaching (FRAP). The instrument and data analysis scheme are described in Kim, S. H. and Yu, H., J. Phys. Chem. 1992, 96, 4034, which is hereby fully incorporated by reference. Fluorescein was used as the fluorescence probe due, in part, to its molecular size being roughly the same as that of DTPA[Gd(III)]. The focus of the study was to examine the possible retardation effects of gelatin concentration and cross-link density on the diffusion, which was determined at room temperature, i.e., below the gel point of gelatin. The diffusion of fluorescein probe slows down with the increase of gelatin concentration. The diffusion coefficient decreases from 1.5×10-10 to 9×10-12 […]-1 when the concentration of gelatin increases from 9% to 40%. […] Accordingly, the probe diffusion is more likely controlled by the concentration of gelatin rather than the cross-link density. On the other hand, the cross-link density may determine the swelling ratio of gelatin, i.e., the concentration of gelatin in aqueous solution. […]

| Structure (SMILES) | time to diffuse out of the gelatin coating (estimated for coating thickness 60 μm and diffusion coefficient 9×10-12 m2s-1) | fluorescence signal remaining in gelatin films (after soaking in water for 18 hours, including films not cross-linked) |
| --- | --- | --- |
| O=C(O)CN(CCN(CC(=O)O)CC(=O)O)CCN(CC(=O)O)CC(=O)O [DTPA, diethylenetriaminepentaacetic acid] | about 67 seconds | – |
| O=C1OC2(c3ccc(O)cc3Oc3cc(O)ccc32)c2ccccc21 [fluorescein] | – | still fluorescence signal |

Reference: patent US8457712B2, “Multi-mode medical device system and methods of manufacturing and using same” (Wisconsin Alumni Research Foundation, priority 2005, dated 2013)
